# Reference: US5574059A, “Treating disorders mediated by vascular smooth muscle cell proliferation” (priority 1995, dated 1996)
# Tests used:
# [1] = test system: rat aortic smooth muscle cells; test: serum-stimulated proliferation, 3H-thymidine incorporation into DNA; format: cell-based; settings: 10% fetal calf serum stimulated
# Experimental: Inhibition of serum-stimulated proliferation of rat aortic smooth muscle cells is determined as follows: The antiproliferative effect of potential drug is determined by measuring the incorporation of ^3 H-thymidine into cellular DNA. Exposure of quiescent vascular smooth muscle cell to serum, which contains many growth factors, results in a large increase in cellular proliferation as measured by ^3 H-thymidine incorported into DNA. The inhibitory effect of potential drug on serum-stimulated proliferation is tested by adding a drug before the addition of serum and determining if the serum-stimulated proliferation is reduced. […] In that event, antagonizing of the antiproliferative effect of idazoxan is determined by adding antagonist before the addition of idazoxan to serum-stimulated vascular smooth muscle cells.
# In this experiment, the proliferation of vascular smooth muscle cells was determined by measuring DNA replication. The incorporation of ^3 H-thymidine into DNA was used to measure the replication of DNA as described in Erlinge, D., et al, Am. J. Physiol. 265, H1089-H1097 (1993) which is incorporated herein by reference.
# Rat aortic smooth muscle cells prepared as described in In Vitro Example 1 were plated into 24-well plates at a density of about 30,000 cells/well in 10% fetal calf serum (FCS). After 48 hours, the cells were starved in 0.5% FCS for another 48 hours to decrease proliferation and induce quiescence. The medium was replaced by serum-free medium 24 hours prior to addition of drug (drugs are described below) and 10% fetal calf serum or only 10% fetal calf serum in the case of the control. The cells were then incubated for 24 hours and ^3 H-thymidine (1 μCi/well) was added at hour 20. At the end of the 24 hour period, the medium was aspirated and the cells were washed three times with phosphate-buffered saline and twice with ice-cold trichloroacetic acid. Fixed cells were then solubilized in 0.2M NaOH and sonicated. A 100 μl aliquot was used for scintillation counting.
# [2] = test system: human coronary artery smooth muscle cells; test: 3H-thymidine incorporation in normal human coronary artery smooth muscle cells; format: cell-based
# Experimental: In this experiment the antiproliferative action of idazoxan was tested in normal human coronary artery smooth muscle cells (Clonetics Corp.). Proliferation of smooth muscle cells was measured as described above by the incorporation of ^3 H-thymidine into cellular DNA. Following the incubation of semi-confluent smooth muscle cells in serum-free medium for 24 hr, growth is stimulated by either 5% fetal calf serum (FCS) or platelet derived growth factor (PDGF) (10 ng/well) in the presence and absence of various concentrations of idazoxan. […] In Table 4, "DPM" stands for disintegrations per minute which is a measure of the radioactivity incorporated into the cellular DNA by 3H-thymidine.
# rat carotid artery = test: balloon angioplasty of rat left common carotid artery; format: in vivo; settings: 10 mg/kg/24hr for 7 days, s.c. minipump
# Experimental: To determine the actions of idazoxan in inhibiting the proliferation of vascular smooth muscle cells in vivo, we tested the effect of balloon angioplasty in rat carotid artery. Left common carotid artery balloon angioplasty was performed as described by Ohlstein et al, Proc. Natl. Acad. Sci. 90, 6189-6193 (1993). Rats were implanted, subcutaneously, with Alzet minipumps (1 μl/hr delivery rate) containing idazoxan to deliver a dose of 10 mg/kg/24hr for 7 days. Control rats were implanted with minipumps containing sterile saline. Ballon angioplasty of left common carotid artery was performed on fourth day of idazoxan administration and animals were sacrificed 10 days after the surgery. Left and right common carotid arteries were removed, cross-sections (10 μm) were cut in a cryostat and stained with eosin and hematoxylin. Blood vessel layers were quantitated in an imaging system and the ratio of internal and external diameters were calculated.
# [3] = Example I: patient with intermittent claudication, iliac artery plaques; format: in vivo, human; settings: over 30 days oral; idazoxan 50 and 75 mg/day, UK 14,304 125, naphazoline 125, cirazoline 75, agmatine 900 mg/day
# Text: A person presents with progressive symptoms of intermittent claudication in both legs.
# [4] = Example IV: patient with fibromuscular dysplasia of the renal artery, angioplasty; format: in vivo, human
# [5] = Example V: patient with Type I diabetes mellitus, overgrowth of retinal vessels; format: in vivo, human; settings: idazoxan 75 mg/day; UK 14,304 60, naphazoline 125, cirazoline 60, agmatine 900 mg/day
# Text: A person with Type I diabetes mellitus and maintained on insulin presents with progressive symptoms of loss of visual acuity bilaterally with evidence on opthalmascopic examination of overgrowth of retinal vessels and hemorrhages.
smiles,measurement,setting,value
"c1ccc2c(c1)OCC(C1=NCCN1)O2 (stereo not shown) [Idazoxan, 2-[2-(1,4-benzodioxanyl)]-2-imidazoline]","inhibition of vascular smooth muscle cell proliferation, in words",[1],potently inhibited
same,IC50,"[1]; Rattus norvegicus, 24 h, read-out: 3H-thymidine incorporated (IC50)",4.5 ± 1.4 µM
same,3H-thymidine incorporated,[2]; FCS (5%) + idazoxan 1 μM,5540 ± 430 DPM/well
same,3H-thymidine incorporated,[2]; FCS (5%) + idazoxan 10 μM,2370 ± 230 DPM/well
same,3H-thymidine incorporated,[2]; FCS (5%) + idazoxan 100 μM,430 ± 98 DPM/well
same,3H-thymidine incorporated,[2]; PDGF (10 ng/well) + idazoxan 1 μM,3220 ± 180 DPM/well
same,3H-thymidine incorporated,[2]; PDGF (10 ng/well) + idazoxan 10 μM,1890 ± 210 DPM/well
same,3H-thymidine incorporated,[2]; PDGF (10 ng/well) + idazoxan 100 μM,340 ± 60 DPM/well
same,"incorporation of 3H-thymidine, in words",[2]; stimulated by FCS or PDGF,inhibited the incorporation of ^3 H-thymidine
same,"internal/external diameter ratio, non-injured right common carotid artery vs control",rat carotid artery,no significant difference
same,internal/external diameter ratio of lesion side as percent of control side,"rat carotid artery; 10 days after surgery, saline control 21.9 ±3.3",6.5 ±3.4%
same,"lesion side as percent of control side vs saline, in words",rat carotid artery; injured left common carotid artery,significant decrease
same,symptoms of intermittent claudication,[3],stabilization of symptoms
same,blood pressure,[4]; idazoxan 75 mg/day for 1 month followed by angioplasty with continued treatment,rapid fall of blood pressure to normal
same,re-elevation of pressure / restenosis of the renal artery,"[4]; idazoxan 75 mg/day, UK 14,304 60, naphazoline 125, cirazoline 60, agmatine 900 mg/day","without evidence months later on re-elevation of pressure or on follow up, of restenosis of the renal artery"
same,progression and visual symptoms,[5],arrest of the progression and some regression of the visual symptoms
